Laboratory results: ChEMBL document CHEMBL4138146, “A Schmidt rearrangement-mediated synthesis of novel tetrahydro-benzo[1,4]diazepin-5-ones as potential anticancer and antiprotozoal agents” (Eur J Med Chem, 2017)

Tests used:
Type in all cases: functional
RXF 393 = assay: Growth inhibition of human RXF393 cells assessed as cell growth at 10^-8 M incubated for 48 hrs by sulforhodamine B assay relative to control; settings: RXF 393, 48 h, read-out: Activity
NCI-H322M = assay: Growth inhibition of human NCI-H322M cells assessed as cell growth at 10^-6 M incubated for 48 hrs by sulforhodamine B assay relative to control; settings: read-out: Activity
T47D = assay: Growth inhibition of human T47D cells assessed as cell growth at 10^-4 M incubated for 48 hrs by sulforhodamine B assay relative to control; settings: read-out: Activity
LOX IMVI [1] = assay: Growth inhibition of human LOXIMVI cells assessed as cell growth at 10^-8 M incubated for 48 hrs by sulforhodamine B assay relative to control; settings: read-out: Activity
HT-29 [2] = assay: Growth inhibition of human HT-29 cells assessed as cell growth at 10^-4 M incubated for 48 hrs by sulforhodamine B assay relative to control; settings: HT-29, 48 h, read-out: Activity
HL-60(TB) [3] = assay: Growth inhibition of human HL-60(TB) cells assessed as cell growth at 10^-4 M incubated for 48 hrs by sulforhodamine B assay relative to control; settings: HL-60, 48 h, read-out: Activity
SNB-75 = assay: Growth inhibition of human SNB75 cells assessed as cell growth at 10^-8 M incubated for 48 hrs by sulforhodamine B assay relative to control; settings: SNB-75, 48 h, read-out: Activity
MDA-MB-435 = assay: Growth inhibition of human MDA-MB-435 cells assessed as cell growth at 10^-7 M incubated for 48 hrs by sulforhodamine B assay relative to control; settings: MDA-MB-435, 48 h, read-out: Activity
OVCAR-3 = assay: Growth inhibition of human OVCAR3 cells assessed as cell growth at 10^-8 M incubated for 48 hrs by sulforhodamine B assay relative to control; settings: OVCAR-3, 48 h, read-out: Activity
OVCAR-5 = assay: Growth inhibition of human OVCAR5 cells assessed as cell growth at 10^-5 M incubated for 48 hrs by sulforhodamine B assay relative to control; settings: OVCAR-5, 48 h, read-out: Activity
IGROV-1 = assay: Growth inhibition of human IGROV1 cells assessed as cell growth at 10^-5 M incubated for 48 hrs by sulforhodamine B assay relative to control; settings: IGROV-1, 48 h, read-out: Activity
NCI-H23 = assay: Growth inhibition of human NCI-H23 cells assessed as cell growth at 10^-8 M incubated for 48 hrs by sulforhodamine B assay relative to control; settings: NCI-H23, 48 h, read-out: Activity
PC-3 [4] = assay: Growth inhibition of human PC3 cells assessed as cell growth at 10^-8 M incubated for 48 hrs by sulforhodamine B assay relative to control; settings: PC-3, 48 h, read-out: Activity
OVCAR-8 = assay: Growth inhibition of human OVCAR8 cells assessed as cell growth at 10^-4 M incubated for 48 hrs by sulforhodamine B assay relative to control; settings: OVCAR-8, 48 h, read-out: Activity
SN12C = assay: Growth inhibition of human SN12C cells assessed as cell growth at 10^-7 M incubated for 48 hrs by sulforhodamine B assay relative to control; settings: read-out: Activity
SR = assay: Growth inhibition of human SR cells assessed as cell growth at 10^-5 M incubated for 48 hrs by sulforhodamine B assay relative to control; settings: read-out: Activity
HT-29 [5] = assay: Growth inhibition of human HT-29 cells assessed as cell growth at 10^-5 M incubated for 48 hrs by sulforhodamine B assay relative to control; settings: HT-29, 48 h, read-out: Activity
NCI/ADR-RES = assay: Growth inhibition of human NCI/ADR-RES cells assessed as cell growth at 10^-4 M incubated for 48 hrs by sulforhodamine B assay relative to control; settings: read-out: Activity
PC-3 [6] = assay: Growth inhibition of human PC3 cells assessed as cell growth at 10^-6 M incubated for 48 hrs by sulforhodamine B assay relative to control; settings: PC-3, 48 h, read-out: Activity
SK-MEL-5 = assay: Growth inhibition of human SK-MEL-5 cells assessed as cell growth at 10^-4 M incubated for 48 hrs by sulforhodamine B assay relative to control; settings: SK-MEL-5, 48 h, read-out: Activity
M14 [7] = assay: Growth inhibition of human M14 cells assessed as cell growth at 10^-6 M incubated for 48 hrs by sulforhodamine B assay relative to control; settings: M14, 48 h, read-out: Activity
KM12 = assay: Growth inhibition of human KM12 cells assessed as cell growth at 10^-8 M incubated for 48 hrs by sulforhodamine B assay relative to control; settings: KM12, 48 h, read-out: Activity
NCI-H460 = assay: Growth inhibition of human NCI-H460 cells assessed as cell growth at 10^-6 M incubated for 48 hrs by sulforhodamine B assay relative to control; settings: NCI-H460, 48 h, read-out: Activity
HL-60(TB) [8] = assay: Growth inhibition of human HL-60(TB) cells assessed as cell growth at 10^-8 M incubated for 48 hrs by sulforhodamine B assay relative to control; settings: HL-60, 48 h, read-out: Activity
MDA-MB-468 = assay: Growth inhibition of human MDA-MB-468 cells assessed as cell growth at 10^-4 M incubated for 48 hrs by sulforhodamine B assay relative to control; settings: MDA-MB-468, 48 h, read-out: Activity
SNB-19 = assay: Growth inhibition of human SNB19 cells assessed as cell growth at 10^-8 M incubated for 48 hrs by sulforhodamine B assay relative to control; settings: SNB-19, 48 h, read-out: Activity
OVCAR-4 = assay: Growth inhibition of human OVCAR4 cells assessed as cell growth at 10^-7 M incubated for 48 hrs by sulforhodamine B assay relative to control; settings: OVCAR-4, 48 h, read-out: Activity
A549 = assay: Growth inhibition of human A549/ATCC cells assessed as cell growth at 10^-4 M incubated for 48 hrs by sulforhodamine B assay relative to control; settings: A549, 48 h, read-out: Activity
DU-145 = assay: Growth inhibition of human DU145 cells assessed as cell growth at 10^-4 M incubated for 48 hrs by sulforhodamine B assay relative to control; settings: DU-145, 48 h, read-out: Activity
K562 = assay: Growth inhibition of human K562 cells assessed as cell growth at 10^-6 M incubated for 48 hrs by sulforhodamine B assay relative to control; settings: K562, 48 h, read-out: Activity
NCI-H522 [9] = assay: Growth inhibition of human NCI-H522 cells assessed as cell growth at 10^-7 M incubated for 48 hrs by sulforhodamine B assay relative to control; settings: NCI-H522, 48 h, read-out: Activity
NCI-H522 [10] = assay: Growth inhibition of human NCI-H522 cells assessed as cell growth at 10^-5 M incubated for 48 hrs by sulforhodamine B assay relative to control; settings: NCI-H522, 48 h, read-out: Activity
M14 [11] = assay: Growth inhibition of human M14 cells assessed as cell growth at 10^-8 M incubated for 48 hrs by sulforhodamine B assay relative to control; settings: M14, 48 h, read-out: Activity
LOX IMVI [12] = assay: Growth inhibition of human LOXIMVI cells assessed as cell growth at 10^-7 M incubated for 48 hrs by sulforhodamine B assay relative to control; settings: read-out: Activity

`CCCCOc1nc2ccccc2cc1C1CNC(=O)c2ccccc2N1` (centres undefined) was tested. Which growth at 0.01 µM (RXF 393) did it give?
The growth at 0.01 µM was 100%.

And the growth at 1 µM (NCI-H322M)?
The growth at 1 µM was 86%.

And the growth at 100 µM (T47D)?
Its growth at 100 µM is 10%.

What about the growth at 0.01 µM (LOX IMVI [1]) of the same compound?
Its growth at 0.01 µM is 95%.

What about the growth at 100 µM (HT-29 [2]) of the same compound?
Its growth at 100 µM is -61%.

What about the growth at 100 µM (HL-60(TB) [3]) of the same compound?
Its growth at 100 µM is -55%.

What about the growth at 0.01 µM (SNB-75) of the same compound?
The growth at 0.01 µM was 73%.

What about the growth at 0.1 µM (MDA-MB-435) of the same compound?
Its growth at 0.1 µM is 98%.

What about the growth at 0.01 µM (OVCAR-3) of the same compound?
The growth at 0.01 µM was 100%.

What about the growth at 10 µM (OVCAR-5) of the same compound?
Its growth at 10 µM is 38%.

And the growth at 10 µM (IGROV-1)?
The growth at 10 µM was 31%.

What about the growth at 0.01 µM (NCI-H23) of the same compound?
The growth at 0.01 µM was 95%.

What about the growth at 0.01 µM (PC-3 [4]) of the same compound?
The growth at 0.01 µM was 96%.

What about the growth at 100 µM (OVCAR-8) of the same compound?
The growth at 100 µM was -45%.

What about the growth at 0.1 µM (SN12C) of the same compound?
The growth at 0.1 µM was 90%.

And the growth at 10 µM (SR)?
Its growth at 10 µM is 1%.

What about the growth at 10 µM (HT-29 [5]) of the same compound?
The growth at 10 µM was 3%.

What about the growth at 100 µM (NCI/ADR-RES) of the same compound?
The growth at 100 µM was -50%.

And the growth at 1 µM (PC-3 [6])?
The growth at 1 µM was 89%.

And the growth at 100 µM (SK-MEL-5)?
The growth at 100 µM was -24%.

And the growth at 1 µM (M14 [7])?
Its growth at 1 µM is 61%.

And the growth at 0.01 µM (KM12)?
The growth at 0.01 µM was 98%.

What about the growth at 1 µM (NCI-H460) of the same compound?
Its growth at 1 µM is 94%.

What about the growth at 0.01 µM (HL-60(TB) [8]) of the same compound?
The growth at 0.01 µM was 98%.

What about the growth at 100 µM (MDA-MB-468) of the same compound?
Its growth at 100 µM is -43%.

What about the growth at 0.01 µM (SNB-19) of the same compound?
Its growth at 0.01 µM is 96%.

And the growth at 0.1 µM (OVCAR-4)?
The growth at 0.1 µM was 98%.

And the growth at 100 µM (A549)?
The growth at 100 µM was -75%.

What about the growth at 100 µM (DU-145) of the same compound?
Its growth at 100 µM is -43%.

What about the growth at 1 µM (K562) of the same compound?
The growth at 1 µM was 46%.

And the growth at 0.1 µM (NCI-H522 [9])?
Its growth at 0.1 µM is 107%.

What about the growth at 10 µM (NCI-H522 [10]) of the same compound?
The growth at 10 µM was 25%.

What about the growth at 0.01 µM (M14 [11]) of the same compound?
Its growth at 0.01 µM is 96%.

What about the growth at 0.1 µM (LOX IMVI [12]) of the same compound?
Its growth at 0.1 µM is 93%.
